Experimental data: patent publication US6673791B2, “Non-nucleoside reverse transcriptase inhibitors” (Boehringer Ingelheim (Canada) Ltd., priority 2001, dated 2004)
Like-named read-outs stand apart in the source and are kept apart here.

Key:
[1] = tested on: WT RT (HIV-1 wild type strain); experiment: EC50 assay, WT RT strain; format: cell-based
Text: (§1) Reverse TranscriptASE (RT) Assays
(§2) The assays are as described in WO 01/96338A1, the contents of which are hereby incorporated herein. The results are listed in Tables 8 as IC50(nM) and EC50(nM).

[2] = tested on: K103N/Y181C (HIV-1 double mutant strain); experiment: EC50 assay, K103N/Y181C strain; format: cell-based
Text: as §1, §2

[3] = biological target: T1, K103N/Y181C double mutant RT (HIV-1 RT) (Human immunodeficiency virus type 1 group M subtype B, UniProt P03366, K702N/Y780C); experiment: biochemical
T1 construct: mutations that occur in the reverse transcriptase segment of the pol gene
Text: (§3) Based upon testing of these compounds, as described below, it is known that they inhibit the RNA-dependent DNA polymerase activity of HIV-1 RT. […] Utilising the Reverse Transcriptase (RT) Assay described below, compounds can be tested for their ability to inhibit the RNA-dependent DNA polymerase activity of HIV-1 RT. Certain specific compounds described in the Examples which appear below, were so tested. The results of this testing appear in Table 4 as IC50 (nM) and Table 5 as EC50 (nM).
as §1, §2

[4] = biological target: T2, V106A mutant RT (HIV-1 RT) (Human immunodeficiency virus type 1 group M subtype B, UniProt P03366, V705A); experiment: biochemical
T2 construct: mutations that occur in the reverse transcriptase segment of the pol gene
Text: as §3, §1, §2

[5] = biological target: T3, WT RT (HIV-1 RT) (Human immunodeficiency virus type 1 group M subtype B, UniProt P03366); experiment: biochemical
T3 construct: mutations that occur in the reverse transcriptase segment of the pol gene
Text: as §3, §1, §2

[6] = biological target: T4, Y188L mutant RT (HIV-1 RT) (Human immunodeficiency virus type 1 group M subtype B, UniProt P03366, Y787L); experiment: biochemical
T4 construct: mutations that occur in the reverse transcriptase segment of the pol gene
Text: as §3, §1, §2

[7] = Human immunodeficiency virus 1, read-out: EC50 WT RT (nM)
[8] = Human immunodeficiency virus 1, read-out: EC50 K103N/Y181C (nM), K103N/Y181C double mutant
[9] = K103N/Y181C double mutant RT, read-out: IC50 K103N/Y181C
[10] = wild type RT, read-out: IC50 WT RT
[11] = wild type, read-out: EC50 WT RT
[12] = K103N/Y181C double mutant, read-out: EC50 K103N/Y181C

Row | SMILES | EC50 [1, 7] | EC50 [2, 8] | IC50 [3] | IC50 ([4]; IC50 V106A (nM)) | IC50 [5] | IC50 ([6]; IC50 Y188L (nM)) | IC50 [3, 9] | IC50 ([4]; read-out: IC50 V106A) | IC50 [5, 10] | IC50 ([6]; read-out: IC50 Y188L) | EC50 [1, 11] | EC50 [2, 12]
1 | CCN1c2ncc(CCOc3ccc(C(=O)O)c4ccccc34)cc2C(=O)N(C)c2cccnc21 [Entry 1001] | < 100 nM | < 100 nM | – | – | – | – | – | – | – | – | – | –
2 | CCN1c2ncc(CCOc3ccc(C(=O)O)c4ccccc34)cc2C(=O)N(C)c2ccc(Cl)nc21 [Entry 1002] | < 100 nM | < 100 nM | < 100 nM | 100 to 1000 nM | < 100 nM | 100 to 1000 nM | – | – | – | – | – | –
3 | CCN1c2ncc(CCOc3ccc(C(=O)O)c4ccccc34)cc2C(=O)N(C)c2ccc(F)nc21 [Entry 1006] | < 100 nM | < 100 nM | 100 to 1000 nM | > 1000 nM | < 100 nM | > 1000 nM | – | – | – | – | – | –
4 | CCN1c2ncc(CCOc3ccc(C(=O)O)c4ccccc34)cc2C(=O)Nc2c(C)cc(Cl)nc21 [Entry 1007] | < 100 nM | < 100 nM | 100 to 1000 nM | 100 to 1000 nM | < 100 nM | > 1000 nM | – | – | – | – | – | –
5 | CCN1c2ncc(CCOc3ccc(CC(=O)O)c4ccccc34)cc2C(=O)N(C)c2cccnc21 [Entry 1008] | – | – | – | – | – | – | 100 to 1000 nM | > 1000 nM | < 100 nM | > 1000 nM | < 100 nM | < 100 nM
6 | CCN1c2ncc(CCOc3ccc(CC(=O)O)c4ccccc34)cc2C(=O)N(C)c2ccc(F)nc21 [Entry 1009] | < 100 nM | < 100 nM | 100 to 1000 nM | > 1000 nM | < 100 nM | > 1000 nM | – | – | – | – | – | –
7 | CCN1c2ncc(CCOc3ccc(CC(=O)O)c4ccccc34)cc2C(=O)N(C)c2ccc(Cl)nc21 [Entry 1010] | < 100 nM | < 100 nM | 100 to 1000 nM | > 1000 nM | < 100 nM | > 1000 nM | – | – | – | – | – | –
8 | CCN1c2ncc(CCOc3ccc(CC(=O)O)c4ccccc34)cc2C(=O)Nc2c(C)cc(Cl)nc21 [Entry 1012] | < 100 nM | 100 to 1000 nM | 100 to 1000 nM | 100 to 1000 nM | < 100 nM | > 1000 nM | – | – | – | – | – | –
9 | CCN1c2ncc(CCOc3ccc(CC(=O)NN)c4ccccc34)cc2C(=O)N(C)c2cccnc21 [Entry 1015] | < 100 nM | < 100 nM | < 100 nM | 100 to 1000 nM | < 100 nM | 100 to 1000 nM | – | – | – | – | – | –
10 | CCN1c2ncc(CCOc3ccc(CC(=O)NN)c4ccccc34)cc2C(=O)N(C)c2ccc(Cl)nc21 [Entry 1016] | < 100 nM | < 100 nM | < 100 nM | 100 to 1000 nM | < 100 nM | 100 to 1000 nM | – | – | – | – | – | –
11 | CCN1c2ncc(CCOc3ccc(CC(=O)NS(C)(=O)=O)c4ccccc34)cc2C(=O)N(C)c2cccnc21 [Entry 1019] | – | – | – | – | – | – | 100 to 1000 nM | > 1000 nM | < 100 nM | > 1000 nM | < 100 nM | 100 to 1000 nM
12 | CCN1c2ncc(CCOc3ccc(C(C)C(=O)O)c4ccccc34)cc2C(=O)N(C)c2cccnc21 (stereo not shown) [Entry 1020] | < 100 nM | < 100 nM | 100 to 1000 nM | > 1000 nM | < 100 nM | > 1000 nM | – | – | – | – | – | –
13 | CCN1c2ncc(CCOc3ccc(CCC(=O)O)c4ccccc34)cc2C(=O)N(C)c2cccnc21 [Entry 1021] | < 100 nM | < 100 nM | 100 to 1000 nM | > 1000 nM | < 100 nM | > 1000 nM | – | – | – | – | – | –
14 | CCN1c2ncc(CCOc3ccc(CCC(=O)O)c4ccccc34)cc2C(=O)N(C)c2ccc(Cl)nc21 [Entry 1022] | < 100 nM | < 100 nM | 100 to 1000 nM | 100 to 1000 nM | < 100 nM | > 1000 nM | – | – | – | – | – | –
15 | CCN1c2ncc(CCOc3ccc(CCC(=O)O)c4ccccc34)cc2C(=O)N(C)c2ccc(F)nc21 [Entry 1023] | < 100 nM | < 100 nM | 100 to 1000 nM | > 1000 nM | < 100 nM | > 1000 nM | – | – | – | – | – | –
16 | CCN1c2ncc(CCOc3ccc(CCC(=O)O)c4ccccc34)cc2C(=O)Nc2c(C)cc(Cl)nc21 [Entry 1025] | < 100 nM | 100 to 1000 nM | 100 to 1000 nM | 100 to 1000 nM | < 100 nM | > 1000 nM | – | – | – | – | – | –
17 | CCN1c2ncc(CCOc3ccc(/C=C/C(=O)O)c4ccccc34)cc2C(=O)N(C)c2cccnc21 [Entry 1028] | < 100 nM | < 100 nM | 100 to 1000 nM | > 1000 nM | < 100 nM | 100 to 1000 nM | – | – | – | – | – | –
18 | CCN1c2ncc(CCOc3ccc(NS(C)(=O)=O)c4ccccc34)cc2C(=O)N(C)c2cccnc21 [Entry 2003] | – | < 100 nM | 100 to 1000 nM | > 1000 nM | < 100 nM | > 1000 nM | – | – | – | – | – | –
19 | CCN1c2ncc(CCOc3ccc(CCC(=O)O)c4ccccc34)cc2C(=O)N(C)c2cccnc21 [Entry 2011] | – | – | – | – | – | – | 100 to 1000 nM | > 1000 nM | – | > 1000 nM | < 100 nM | 100 to 1000 nM
20 | CCN1c2ncc(CCOc3ccc(CC(=O)O)c4c3CCCC4)cc2C(=O)N(C)c2cccnc21 [Entry 5006] | – | – | 100 to 1000 nM | > 1000 nM | < 100 nM | > 1000 nM | – | – | – | – | – | –
21 | CCN1c2ncc(CCOc3cccc4c3CCCN4CC(=O)O)cc2C(=O)N(C)c2cccnc21 [Entry 6001] | 100 to 1000 nM | – | > 1000 nM | > 1000 nM | < 100 nM | > 1000 nM | – | – | – | – | – | –
22 | CCN1c2ncc(CCOc3ccc(C(=O)O)c4c3CCN(C(C)=O)C4)cc2C(=O)N(C)c2cccnc21 [Entry 7004] | 100 to 1000 nM | – | 100 to 1000 nM | > 1000 nM | < 100 nM | > 1000 nM | – | – | – | – | – | –
23 | CCN1c2ncc(CCOc3ccc(C(=O)O)c4c3CCN(S(C)(=O)=O)C4)cc2C(=O)N(C)c2cccnc21 [Entry 7005] | < 100 nM | – | < 100 nM | > 1000 nM | < 100 nM | 100 to 1000 nM | – | – | – | – | – | –
